From US9546196B2, “Compositions and methods of treatment of cancers” (The University of Toledo, priority 2009, dated 2017) come the findings set out here.

The test system of one series is LNCaP cells. Type of series: cell-based. Details: cell death: dose or concentration left out as unconfirmed. How it is done: FIG. 12B: LNCaP cells were grown without androgen for 2 or 4 days in the presence of increasing concentration of Peptide A-8R [SEQ ID NO: 1] (upper left), Peptide B-8R [SEQ ID NO: 2] (upper right), Peptide C-8R [SEQ ID NO: 3] (lower left), or Peptide D-8R [SEQ ID NO: 4] (lower right). The MTT reagent was used to measure cell density.
FIG. 13A: LNCaP cells were grown with (Right) or without (Left) 1 nM androgen ([…]) for 3 or 6 days in the presence of increasing concentration of Peptide A-8R [SEQ ID NO: 1] or vehicle (70% DMSO). The MTT reagent was used to measure cell density.
FIG. 13B: LNCaP cells were grown with (Right) or without (Left) 1 nM androgen (R1881) for 3 or 6 days in the presence of increasing concentration of Peptide C-8R [SEQ ID NO: 3] or vehicle and then cell density was measured.
FIG. 14A: LNCaP cells were grown with (Right) or without (Left) 1 nM R1881 for 3 or 6 days in the presence of increasing concentration of Peptide A or vehicle and then cell density was measured.
FIG. 14B: LNCaP cells were grown with (Right) or without (Left) 1 nM R1881 for 3 or 6 days in the presence of increasing concentration of Peptide A-8R [SEQ ID NO: 1] or vehicle and then cell density was measured.
FIG. 15A: LNCaP cells were grown for 1-8 hrs in the presence of 10 μM Peptide A-8R [SEQ ID NO: 1] or vehicle and then cell density was measured.
FIG. 19C: LNCaP cells were grown with for 12 or 48 hrs in the presence of increasing concentration of Peptide A-8R [SEQ ID NO: 1] (Left) or PeptideA-8R-Biotin [SEQ ID NO: 1] (Right) and then cell density was measured.
Each peptide contained 8 arginines at the C-terminus, a sequence which is known to mediate plasma membrane translocation and cellular internalization.
To measure how rapid the cytotoxic effect of Peptide A-8R [SEQ ID NO: 1] occurs, LNCaP cells were treated with 10 μM peptide and incubated for 1-8 hrs. […] Using the same conditions, C81 cells were used to study the peptide effect on hormone-refractory prostate cancer cells.

Series [1] deals with ACHN human kidney cancer cells. Nature of the series: ACHN cell density with peptide. It counts as cell-based. The settings on record: even at 100 μM; 2 or 4 days; no endogenous sGCα1. The protocol:
FIG. 17C: ACHN human kidney cancer cells were grown for 2 or 4 days in the presence of increasing concentration of Peptide A-8R [SEQ ID NO: 1] or vehicle and then cell density was measured.

The subject of the next series is C81 xenograft tumors. Description: C81 xenograft tumors in mice, intratumoral injection. It counts as in vivo. The protocol:
FIGS. 28A-C: Peptide A-8R [SEQ ID NO: 1] inhibits the growth of C81 prostate xenograft tumors. (A) C81 (hormone-independent LNCaP) xenograft tumors were grown in nude mice to a size of about 200 cubic mm and then treated every other day with five intratumoral injections of either Peptide A-8R [SEQ ID NO: 1] ([…] of animal) or vehicle (DMSO) for seven days, after which the tumors were left untreated and allowed to grow for an additional 3 weeks before the tumors were excised. Each point represents the average tumor size of three animals plus or minus the standard deviations. The arrow represents the last treatment of Peptide A-8R [SEQ ID NO: 1] or vehicle. There is a statistical significance (P<0.0004) of Peptide A activity, relative to vehicle, for each treatment day. […] Bar graphs represent averages of each set of three tumors plus standard deviations. Asterisks indicate statistical significance (P<0.02). (C) Image showing the strong anti-tumor effect of Peptide A-8R [SEQ ID NO: 1], as compared to vehicle control, in one animal.
This experiment was then repeated using hormone-refractory C81 cells. 2×10^6 C81 cells in 50 μL of growth medium was mixed with 50 μL Matrigel (BD Biosciences) and injected into both flanks of 4-6-week old SCID male mice. When tumor sizes reached 200 mm^3, 50 μL of Peptide A-8R (40 mg Peptide A-8R/kg of animal) [“A-8R” disclosed as SEQ ID NO: 1] or vehicle (DMSO) was directly injected into the tumors every other day. Injections were stopped after 5 times and tumors were measured every 3 days. Mice were euthanized after 3 weeks and tumors were excised. All procedures were approved by the University of Toledo, Division of Lab Animal Recourses (DLAR). Protein extracts were prepared by boiling the tumor tissue in 3×SDS buffer, and evaluated by SDS-PAGE gel. The procedure was carried out in strict accordance with the recommendations in the Guide for the Care and Use of Laboratory Animals of the National Institutes of Health. […] During the experiments, all animals were monitored daily for morbidity and all efforts were made to minimize suffering. […]

“Also recorded” adds a separate entry of the source.

On to “Ac-TFCKAFPFHIIRRRRRRRR-OH [Peptide A-8R]”, for which, in the series on LNCaP cells (LNCaP, 10 μM peptide, 1-8 hrs), the “cell number, time course” value was “steep decline in cell number with one hour”. The substance also had a cell death in the series with LNCaP cells (LNCaP, peptide treatment, by day 6) of 100%. Also, the “effect on LNCaP cell growth / cytotoxicity (in words)” value in the series on LNCaP cells (increasing concentration of peptide, days, with or without 1 nM R1881) is “highly cytotoxic; also recorded: induced LNCaP cell death in both the absence and presence of androgens”. Besides, the “effect on ACHN cells” value in series [1] is on record as “little to no effect”. Besides, the “tumor growth during treatment” value in the series with C81 xenograft tumors (40 mg/kg intratumoral every other day, five injections) is “stopped tumor growth and actually caused some tumor regression”. Besides, in the series on C81 xenograft tumors (one mouse having two tumors), the “tumor size versus vehicle-treated tumor in the same mouse” value is recorded as “markedly smaller”. Further, the “tumor growth after peptide treatment was stopped” value in the series on C81 xenograft tumors (three weeks after treatment was stopped) is on record as “did not grow at all”.
